Experimental data: PMC3759900, “Acetylcholinesterase Reactivators (HI-6, Obidoxime, Trimedoxime, K027, K075, K127, K203, K282): Structural Evaluation of Human Serum Albumin Binding and Absorption Kinetics” (International Journal of Molecular Sciences, 2013)

Key:
[1] = Pharmacokinetic study, plasma concentration after i.m. injection (HPLC); conditions: male Wister rats, description of plasma kinetic curves
[2] = target: Human Serum Albumin (HSA) (Homo sapiens, UniProt P02768); test: HSA binding by ultrafiltration (Centrifree) and HPLC; conditions: HSA 45 g/L in phosphate buffer saline, 90 min at 37 °C, mean of three independent measurements
Sequence of Human Serum Albumin (HSA) (P02768 25-609): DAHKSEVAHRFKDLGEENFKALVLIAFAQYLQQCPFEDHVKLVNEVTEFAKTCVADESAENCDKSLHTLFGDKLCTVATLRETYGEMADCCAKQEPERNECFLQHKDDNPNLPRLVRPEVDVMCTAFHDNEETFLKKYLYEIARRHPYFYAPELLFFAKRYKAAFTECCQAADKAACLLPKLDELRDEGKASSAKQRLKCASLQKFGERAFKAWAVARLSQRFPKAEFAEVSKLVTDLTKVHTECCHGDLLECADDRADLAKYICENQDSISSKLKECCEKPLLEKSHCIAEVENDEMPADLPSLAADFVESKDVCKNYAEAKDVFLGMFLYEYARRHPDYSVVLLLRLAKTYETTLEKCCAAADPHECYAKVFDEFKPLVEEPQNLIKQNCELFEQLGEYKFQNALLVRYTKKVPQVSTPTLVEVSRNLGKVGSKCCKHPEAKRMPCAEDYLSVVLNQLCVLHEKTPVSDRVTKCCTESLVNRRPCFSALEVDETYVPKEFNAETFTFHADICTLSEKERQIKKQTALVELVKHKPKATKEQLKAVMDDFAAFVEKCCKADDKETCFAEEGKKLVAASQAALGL

| Compound | Elimination from blood (kinetic curve profile) [1] | Binding to Human Serum Albumin (HSA) [2] [%] |
| --- | --- | --- |
| NC(=O)c1cc[n+](COC[n+]2ccccc2/C=N/O)cc1 [HI-6] | slow elimination from the blood | 1 |
| NC(=O)c1cc[n+](CCC[n+]2ccc(/C=N/O)cc2)cc1 [K027] |  | 5 |
| O/N=C/c1cc[n+](C/C=C/C[n+]2ccc(/C=N/O)cc2)cc1 [K075] |  | 10 |
| NC(=O)c1cc[n+](CCOCC[n+]2ccc(C=NO)cc2)cc1 [K127] |  | 4 |
| NC(=O)c1cc[n+](C/C=C/C[n+]2ccc(/C=N/O)cc2)cc1 [K203] |  | 15 |
| ON=Cc1cc[n+](C/C=C\C[n+]2ccc(C=NO)cc2)cc1 [K282] |  | 12 |
| O/N=C/c1cc[n+](COC[n+]2ccc(/C=N/O)cc2)cc1 [Obidoxime, obidoxime] | relatively fast elimination |  |
| O/N=C/c1cc[n+](CCC[n+]2ccc(/C=N/O)cc2)cc1 [Trimedoxime, trimedoxime] | slow elimination from the blood | 6 |
